The record followed here is PubChem BioAssay (NCI).

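Results reflect a 48-hour exposure of cells in 96-well plates to compound at five concentrations. GI50: concentration for 50% inhibition of growth. TGI denotes the concentration required for complete inhibition of growth.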

Some test systems named below: UACC-62 melanoma; OVCAR-4 ovarian; MOLT-4 leukemia; K-562 leukemia; M14 melanoma; DU-145 prostate; KM12 colon; CAKI-1 renal.
Holding throughout (assay): inhibition of tumour cell growth, NCI panel, 48 h

`CC(C)(C)OC(=O)N1CC(Cn2cc(C(F)(F)F)c3c(Cl)ncnc32)C1`: the GI50 was 1.85 µM in the assay on UACC-62 melanoma; 10.2 µM with OVCAR-4 ovarian; 2.39 µM with MOLT-4 leukemia; 2.81 µM in the assay with K-562 leukemia; 1.72 µM with M14 melanoma; 1.79 µM in the assay on DU-145 prostate. The GI50 in the assay with KM12 colon was 2.34 µM. For the same molecule, the TGI is 3.65 µM in the assay with UACC-62 melanoma; 23.2 µM in the assay on OVCAR-4 ovarian; 6.28 µM in the assay with MOLT-4 leukemia; > 100 µM with K-562 leukemia; 3.38 µM with M14 melanoma; 3.18 µM in the assay with DU-145 prostate. This molecule showed a TGI in the assay with KM12 colon of 5.35 µM.

With `COc1ccc(C2=CC(c3ccc(Oc4ccnc5cc(Cl)ccc45)c(OC)c3)c3c(nc(OC)[nH]c3=O)N2)cc1` (stereo not given), the GI50 is 4.39 µM in the assay with UACC-62 melanoma; 6.69 µM in the assay on OVCAR-4 ovarian; 3.73 µM with K-562 leukemia; 88.4 µM in the assay with M14 melanoma; 10.3 µM with DU-145 prostate; 15.5 µM with CAKI-1 renal. In addition, the GI50 in the assay on KM12 colon was 5.91 µM. In addition, the TGI with UACC-62 melanoma is 35.7 µM; with OVCAR-4 ovarian, > 100 µM; in the assay with K-562 leukemia, > 100 µM; in the assay with M14 melanoma it was > 100 µM; in the assay with DU-145 prostate it was > 100 µM; in the assay on CAKI-1 renal, > 100 µM. Besides, the TGI in the assay with KM12 colon was > 100 µM.

Turning to `COc1cc(-c2nc(-c3nnc(-c4ccc(F)c(Cl)c4)o3)c3ccccn23)cc(OC)c1OC`, the GI50 with MOLT-4 leukemia was > 100 µM; in the assay with K-562 leukemia, 4.34 µM; in the assay with M14 melanoma it was 3.27 µM; in the assay on CAKI-1 renal, 5.46 µM. Besides, the TGI in the assay with MOLT-4 leukemia, in the assay on K-562 leukemia, in the assay on M14 melanoma and in the assay on CAKI-1 renal was > 100 µM throughout.

Turning to `O=C1c2ccccc2C(=O)c2c(NC(=O)C(Cl)CCl)cccc21` (stereo not given), the TGI with UACC-62 melanoma was found to be 33.9 µM; with OVCAR-4 ovarian, 23.3 µM; with K-562 leukemia it was 0.395 µM; in the assay on M14 melanoma, 20.9 µM; in the assay on DU-145 prostate, 24.6 µM; in the assay on CAKI-1 renal it was 38.8 µM. The molecule further yielded a TGI in the assay with KM12 colon of 8.26 µM.

With `C=CCC(N[C@@H](CO)c1ccccc1)c1ccccn1` (stereo not given in full), the GI50 with UACC-62 melanoma was > 100 µM; with OVCAR-4 ovarian, 25.6 µM; with K-562 leukemia, 34 µM; in the assay on M14 melanoma, > 100 µM; with DU-145 prostate, > 100 µM; with CAKI-1 renal, > 100 µM. Besides, the GI50 in the assay with KM12 colon is > 100 µM. In addition, the TGI in the assay with UACC-62 melanoma, in the assay with OVCAR-4 ovarian, in the assay with K-562 leukemia, in the assay on M14 melanoma, with DU-145 prostate and in the assay on CAKI-1 renal was > 100 µM throughout. Besides, in the assay on KM12 colon, the TGI is > 100 µM.

On to `CCCCCCCCCCCCOC1C(CNCC2OC3OC(C)(C)OC3C2NC(=O)Nc2ccc(C(F)(F)F)cc2)OC2OC(C)(C)OC21` (stereo not given), for which the GI50 in the assay on UACC-62 melanoma is 8.63 µM; in the assay on OVCAR-4 ovarian it was 5.43 µM; in the assay on K-562 leukemia, 0.0327 µM; in the assay with M14 melanoma, 8.27 µM; with DU-145 prostate it was 5.03 µM; with CAKI-1 renal it was 7.41 µM. The GI50 in the assay with KM12 colon was 3.7 µM. In addition, the TGI came to 15.9 µM in the assay on UACC-62 melanoma; 13.2 µM in the assay on OVCAR-4 ovarian; 2.62 µM in the assay on K-562 leukemia; 15.8 µM in the assay on M14 melanoma; 11.9 µM with DU-145 prostate; 15.1 µM in the assay on CAKI-1 renal. This molecule returned a TGI in the assay on KM12 colon of 8.45 µM.

As to `C[C@@H]1[C@H]2[C@H](C=C3[C@@H]4CC[C@H]5Cc6nc7c(nc6C[C@]5(C)[C@H]4C[C@@H](O)[C@@]32C)C[C@@H]2CC[C@H]3C4=C[C@@H]5O[C@@]6(CC[C@](C)(CO)O6)[C@@H](C)[C@@]5(O)[C@@]4(C)[C@H](O)C[C@@H]3[C@@]2(C)C7)O[C@]12CCC(C)(C)O2`, the GI50 with UACC-62 melanoma was 0.348 µM; with OVCAR-4 ovarian it was 7.05 µM; in the assay with MOLT-4 leukemia it was 0.259 µM; with K-562 leukemia it was 0.345 µM; with M14 melanoma, 1.22 µM; with DU-145 prostate, 2.87 µM. Moreover, the GI50 with KM12 colon was 0.73 µM. Moreover, the TGI in the assay on UACC-62 melanoma was 2.54 µM; in the assay with OVCAR-4 ovarian, > 69.7 µM; in the assay on MOLT-4 leukemia, 0.857 µM; in the assay on K-562 leukemia, 2.3 µM; with M14 melanoma, 10.5 µM; with DU-145 prostate, 37.2 µM. Further, the TGI with KM12 colon amounted to 16.2 µM.

`Fc1c[c-]c(-c2ccccn2)c(F)c1.[CH3-].[Pt+2].c1ccc([PH+](c2ccccc2)c2ccccn2)cc1`: the GI50 with OVCAR-4 ovarian was 1.57 µM; in the assay on MOLT-4 leukemia it was 1.04 µM; in the assay with K-562 leukemia it was 1.78 µM; in the assay with DU-145 prostate, 1.79 µM; in the assay with CAKI-1 renal, 1.23 µM; with KM12 colon it was 2.53 µM. The TGI in the assay with OVCAR-4 ovarian is 7.06 µM; in the assay with MOLT-4 leukemia it was > 100 µM; in the assay with K-562 leukemia, > 100 µM; in the assay with DU-145 prostate it was 3.92 µM; in the assay on CAKI-1 renal, 2.53 µM; in the assay with KM12 colon it was 6.49 µM.

Consider `O=C(CCc1ccco1)NC1CCN(CC2(c3ccc(Cl)cc3)CCC2)CC1`, for which the GI50 with UACC-62 melanoma was 15.9 µM; in the assay with OVCAR-4 ovarian, 10.3 µM; in the assay with MOLT-4 leukemia it was 8.37 µM; in the assay with K-562 leukemia it was 2.17 µM; in the assay with DU-145 prostate, 19.1 µM; in the assay on CAKI-1 renal, 13.3 µM. The GI50 in the assay on KM12 colon is 15.3 µM. Besides, the TGI is 30.8 µM in the assay with UACC-62 melanoma; 39.2 µM with OVCAR-4 ovarian; 32.9 µM in the assay on MOLT-4 leukemia; 4.62 µM with K-562 leukemia; 41.3 µM in the assay with DU-145 prostate; 27.2 µM in the assay on CAKI-1 renal. This molecule returned a TGI in the assay on KM12 colon of 31.5 µM.

For `O=S(=O)(CC#CCCCOCC#Cc1ccccc1C#CCS(=O)(=O)c1ccccc1)c1ccccc1`, the GI50 is 17.7 µM with UACC-62 melanoma; 2.61 µM in the assay with MOLT-4 leukemia; 15.9 µM with K-562 leukemia; 25.2 µM in the assay on M14 melanoma; 44.5 µM in the assay on DU-145 prostate; 13.3 µM in the assay with CAKI-1 renal. For the same molecule, the GI50 in the assay with KM12 colon was 33.2 µM. In addition, the TGI is 39.7 µM with UACC-62 melanoma; 5.9 µM in the assay on MOLT-4 leukemia; 39.6 µM in the assay on K-562 leukemia; 56.5 µM in the assay on M14 melanoma; > 100 µM with DU-145 prostate; 30.8 µM in the assay on CAKI-1 renal. In addition, the TGI with KM12 colon is > 100 µM.
